Experimental data as given in patent publication US20250034139A1, “AMINE COMPOUNDS HAVING ANTI-INFLAMMATORY, ANTIFUNGAL, ANTIPARASITIC, AND ANTICANCER ACTIVITY” (PHARMA CINQ, LLC, priority 2013, published 2025).
In brackets after ≈: the same amount, converted by molar mass. Counter-ions that a name gives are not always drawn. Like-named read-outs stand apart in the source and are kept apart here.

Tests used:
Format in all cases: cell-based
[1] = test system: Candida albicans strain 3153; experiment: Example H: Candida albicans growth inhibition (OD 600 nm); details: for MIC: Candida albicans, 3153, 24 hrs at 30° C., YPD, XLfit, read-out: MIC (uM) (99% of inhibition of fungal growth); for IC50: Candida albicans, 3153, read-out: IC50 (uM) (50% inhibition of fungal growth), 24 hrs at 30° C., YPD, XLfit
How it was run: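 Growth inhibition computed as % versus DMSO control from OD600 after ~24 h at 30° C. Inoculum: washed overnight YPD culture of strain 3153 at 3.5×10^4 CFU/ml in YPD; final compound concentrations 0, 5, 10, 16, 22, 30, 40 μM, duplicate wells.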

[2] = test system: Cryptococcus neoformans (serotype D); experiment: Example K: Cryptococcus neoformans (serotype D) growth inhibition; details: Cryptococcus deneoformans; for IC50: read-out: IC50 (concentration for 50% of inhibition); for MIC: read-out: MIC (concentration for maximum-99% of inhibition)
Trichophyton rubrum = experiment: Example J: Trichophyton rubrum growth inhibition, scoring by eye; details: Trichophyton rubrum, 144 h; 6 days at 30° C., tested 6 to 40 μM; read-out: MIC, μM (maximum inhibition concentration, scoring by eye)
How it was run: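 Filtered T. rubrum suspension from PDA plates (grown 4 days, 30 °C) treated with diluted compounds in triplicate, incubated 6 days at 30 °C. Plates imaged; MIC scored by eye.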

[3] = OD of 48 hour reading, 37° C., tested 4 to 60 μM, XLfit

SMILES	MIC [1]	IC50 [1]	IC50 [2, 3]	MIC [2, 3]	MIC (Trichophyton rubrum)	IC50 ([2]; 48 h)
CCCCCCOCCCCCCCCNc1ccnc2c(Cl)cccc12 [Compound AX, 8-Chloro-N-[8-(hexyloxy)octyl]quinolin-4-amine]	26.6 µM (≈ 10.4 µg/mL)	11.2 µM	1.06 µM	10.6 µM (≈ 4.13 µg/mL)	6 µM (≈ 2.35 µg/mL)	–
CCCCCCOc1cccc(OCCCNc2ccnc3ccccc23)c1 [AZ, N-{3-[3-(Hexyloxy)phenoxy]propyl}quinolin-4-amine]	21.1 µM (≈ 7.99 µg/mL)	10.4 µM	2.01 µM	15.8 µM (≈ 5.99 µg/mL)	18 µM (≈ 6.81 µg/mL)	–
CCCCCCOc1ccc(CNc2ccnc3ccccc23)cc1F [BK, N-[3-Fluoro-4-(hexyloxy)benzyl]quinolin-4-amine]	19 µM (≈ 6.71 µg/mL)	11.2 µM	2.44 µM	16.5 µM (≈ 5.82 µg/mL)	–	–
CCCCCCOCCCCCCCCNc1ccnc2cc(Cl)ccc12 [AW, 7-Chloro-N-[8-(hexyloxy)octyl]quinolin-4-amine]	24.8 µM (≈ 9.7 µg/mL)	13.3 µM	0.9 µM	8.73 µM (≈ 3.41 µg/mL)	6 µM (≈ 2.35 µg/mL)	–
CCCCCCOc1cccc(CNc2ncnc3ccccc23)c1 [AK, N-[3-(Hexyloxy)benzyl]quinazolin-4-amine]	–	10.7 µM	0.85 µM	24.6 µM (≈ 8.26 µg/mL)	18 µM (≈ 6.04 µg/mL)	–
CCCCCCOCCCCCCCCNc1ccncn1 [AU, N-[8-(Hexyloxy)octyl]pyrimidin-4-amine]	30.9 µM (≈ 9.52 µg/mL)	16.3 µM	1.63 µM	14.4 µM (≈ 4.42 µg/mL)	12 µM (≈ 3.69 µg/mL)	–
Fc1cccc(OCCCCCCCCNc2ccnc3ccccc23)c1 [BI, N-[8-(3-Fluorophenoxy)octyl]quinolin-4-amine]	27.8 µM (≈ 10.2 µg/mL)	17.5 µM	2.23 µM	19.6 µM (≈ 7.17 µg/mL)	18 µM (≈ 6.6 µg/mL)	–
Cc1ccccc1OCCCCCCCCNc1ccnc2ccccc12 [BG, N-[8-(o-Tolyloxy)octyl]quinolin-4-amine]	20.9 µM (≈ 7.56 µg/mL)	11.5 µM	2.13 µM	12.5 µM (≈ 4.55 µg/mL)	12 µM (≈ 4.35 µg/mL)	–
Fc1ccc(OCCCCCCCCNc2ccnc3ccccc23)cc1 [BJ, N-[8-(4-Fluorophenoxy)octyl]quinolin-4-amine]	23.5 µM (≈ 8.6 µg/mL)	13.3 µM	1.86 µM	18.5 µM (≈ 6.79 µg/mL)	18 µM (≈ 6.6 µg/mL)	–
CCCCCCOCCCCCCCC[n+]1ccc(N)cc1 [BO, 4-Amino-1-[8-(hexyloxy)octyl]pyridinium salts]	42.5 µM	19 µM	2 µM	13.4 µM	> 40 µM	–
CCCCCCOCCCCCCCCCCNc1ccnc2ccccc12 [Compound AL, N-[10-(Hexyloxy)decyl]quinolin-4-amine]	20.1 µM (≈ 7.72 µg/mL)	7.08 µM	1.88 µM	11.5 µM (≈ 4.44 µg/mL)	12 µM (≈ 4.62 µg/mL)	–
CCCCOCCCCCCCCCCNc1ccnc2ccccc12 [AM, N-(10-Butoxydecyl)quinolin-4-amine]	16.2 µM (≈ 5.77 µg/mL)	6.52 µM	3.32 µM	13.3 µM (≈ 4.75 µg/mL)	12 µM (≈ 4.28 µg/mL)	–
c1ccc(Oc2cccc(CNc3ncnc4ccccc34)c2)cc1 [BM, N-(3-Phenoxybenzyl)quinazolin-4-amine]	44.5 µM (≈ 14.6 µg/mL)	20.2 µM	0.72 µM	22.6 µM (≈ 7.38 µg/mL)	18 µM (≈ 5.89 µg/mL)	–
CCCCCCOCCCCCCCCNc1cc(C)nc2ccccc12 [AV, N-[8-(Hexyloxy)octyl]-2-methylquinolin-4-amine]	19.8 µM (≈ 7.34 µg/mL)	13.4 µM	5.12 µM	22.9 µM (≈ 8.47 µg/mL)	25 µM (≈ 9.26 µg/mL)	–
Cc1cccc(OCCCCCCCCNc2ccnc3ccccc23)c1 [BE, N-[8-(m-Tolyloxy)octyl]quinolin-4-amine]	29.7 µM (≈ 10.8 µg/mL)	12.2 µM	3.45 µM	13.2 µM (≈ 4.77 µg/mL)	12 µM (≈ 4.35 µg/mL)	–
COc1ccc(OCCCCCCCCNc2ncnc3ccccc23)cc1 [AE, N-[8-(4-Methoxyphenoxy)octyl]quinazolin-4-amine]	–	7.82 µM	0.53 µM	6.99 µM (≈ 2.65 µg/mL)	6 µM (≈ 2.28 µg/mL)	–
CCCCCCOCCCCCCCCn1cnc2cnccc21 [AS, 1-[8-(Hexyloxy)octyl]-1H-imidazo[4,5-c]pyridine]	37.8 µM (≈ 12.5 µg/mL)	15.3 µM	1.46 µM	26.8 µM (≈ 8.89 µg/mL)	25 µM (≈ 8.29 µg/mL)	–
CCCCOCCCCCCCCCCn1cnc2cnccc21 [AT, 1-(10-Butoxydecyl)-1H-imidazo[4,5-c]pyridine]	51.2 µM (≈ 17 µg/mL)	14.5 µM	1.29 µM	41.8 µM (≈ 13.9 µg/mL)	6 µM (≈ 1.99 µg/mL)	–
Cc1ccc(OCCCCCCCCNc2ccnc3ccccc23)cc1 [BF, N-[8-(p-Tolyloxy)octyl]quinolin-4-amine]	26.9 µM (≈ 9.77 µg/mL)	14.2 µM	–	–	18 µM (≈ 6.53 µg/mL)	–
CCCCCCOc1cccc(CNc2ccnc3ccccc23)c1 [Compound AC, N-[3-(Hexyloxy)benzyl]quinolin-4-amine]	108 µM (≈ 36 µg/mL)	45.7 µM	–	19.4 µM (≈ 6.49 µg/mL)	18 µM (≈ 6.02 µg/mL)	3.35 µM
CCCCCCCCCCNc1ncnc2ccccc12 [Compound AH, N-(Decyl)quinazolin-4-amine]	15.4 µM (≈ 4.4 µg/mL)	5.24 µM	0.76 µM	9.54 µM (≈ 2.72 µg/mL)	6 µM (≈ 1.71 µg/mL)	–
CCCCCCOc1ccc(CNc2ccnc3ccccc23)cc1 [AA, N-[4-(Hexyloxy)benzyl]quinolin-4-amine]	27.3 µM (≈ 9.13 µg/mL)	11 µM	3.34 µM	40.5 µM (≈ 13.6 µg/mL)	–	–
CCCCCCCCCCNc1ccnc2ccccc12 [Compound AG, N-(Decyl)quinolin-4-amine]	16 µM (≈ 4.55 µg/mL)	8.92 µM	1.78 µM	17.6 µM (≈ 4.99 µg/mL)	18 µM (≈ 5.12 µg/mL)	–
c1ccc(Oc2cccc(CNc3ccnc4ccccc34)c2)cc1 [AF, N-(3-Phenoxybenzyl)quinolin-4-amine]	74.2 µM (≈ 24.2 µg/mL)	45.5 µM	5.18 µM	55.9 µM (≈ 18.2 µg/mL)	> 40 µM	–
